Experimental findings from patent US8580794B2 (AbbVie Inc., priority 2009, dated 2013) are described below.

Structures are written as SMILES. Like-named read-outs stand apart in the source and are kept apart here. A value given as a limit tells only on which side of the number the result lay.

The target of one assay is GST-Bc1-2 (Homo sapiens, UniProt P10415). Put plainly: Time Resolved-Fluorescence Resonance Energy Transfer (TR-FRET) Bcl-2 binding assay with F-Bak peptide probe.
In another assay the test system is RS4;11 cells. As to the kind of experiment: RS4;11 Cell Viability Assay (CellTiter Glo).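 Further: RS4,11 acute lymphoblastic leukemia cells, viability as percent of untreated control cells, EC50 for loss of viable cells.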 The class given is cell-based. Conditions: 10% human serum.
Setting [1] is: GST-Bcl-2 1 nM, F-Bak probe 100 nM, Tb-anti-GST 1 nM, '<' = below limit of detection, read-out: TR-FRET Bcl-2 Binding Ki.
The mark [2] stands for this setting: Homo sapiens, RS4-11, 48 h, 50,000 cells per well.

Sequence of GST-Bc1-2 (P10415 whole entry): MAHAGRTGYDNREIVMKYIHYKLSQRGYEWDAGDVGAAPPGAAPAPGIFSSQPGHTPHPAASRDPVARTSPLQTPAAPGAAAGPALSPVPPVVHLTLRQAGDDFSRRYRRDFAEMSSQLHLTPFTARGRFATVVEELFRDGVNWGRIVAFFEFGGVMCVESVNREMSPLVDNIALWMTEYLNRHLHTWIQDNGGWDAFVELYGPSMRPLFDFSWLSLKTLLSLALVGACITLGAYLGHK
Procedure for RS4;11 cells: The acute lymphoblastic leukemia (ALL) cell line RS4;11 was used as the primary human cell line to assess the cellular activity of Bcl-2 selective agents in vitro and their efficacy in vivo.
Cell cytotoxicity EC50 values were assessed using CellTiter Glo (Promega) according to the manufacturer's recommendations. The EC50 values were determined as a percentage of viable cells following treatment compared to the untreated control cells.

Turning to `CC1(C)CCC(CN2CCN(c3ccc(C(=O)NS(=O)(=O)c4cnc(OCC5CCC6(CC5)CNC(=O)O6)c(Cl)c4)c(Oc4cnc5[nH]ccc5c4)c3)CC2)=C(c2ccc(Cl)cc2)C1` (single isomer, unassigned) [Example 396, N-[(5-chloro-6-{[(5r,8r)-2-oxo-1-oxa-3-azaspiro[4.5]dec-8-yl]methoxy}pyridin-3-yl)sulfonyl]-4-(4-{[2-(4-chlorophenyl)-4,4-dimethylcyclohex-1-en-1-yl]methyl}piperazin-1-yl)-2-(1H-pyrrolo[2,3-b]pyridin-5-yloxy)benzamide], the Ki on GST-Bc1-2 (setting [1]) was 0.014 nM. Moreover, in the assay with RS4;11 cells (setting [2]), a half-maximal response (EC50) required 84.1 nM.

As to `CC1(C)CCC(CN2CCN(c3ccc(C(=O)NS(=O)(=O)c4cnc(OCC5CCC6(CC5)CNC(=O)O6)c(Cl)c4)c(Oc4cnc5[nH]ccc5c4)c3)CC2)=C(c2ccc(Cl)cc2)C1` (single isomer, unassigned) [Example 397, N-[(5-chloro-6-{[(5s,8s)-2-oxo-1-oxa-3-azaspiro[4.5]dec-8-yl]methoxy}pyridin-3-yl)sulfonyl]-4-(4-{[2-(4-chlorophenyl)-4,4-dimethylcyclohex-1-en-1-yl]methyl}piperazin-1-yl)-2-(1H-pyrrolo[2,3-b]pyridin-5-yloxy)benzamide], the Ki at GST-Bc1-2 (setting [1]) is 0.041 nM. A half-maximal response in the assay on RS4;11 cells (50,000 cells per well, 48 hours) (EC50) required 113 nM.

Regarding `CC1(C)CCC(CN2CCN(c3ccc(C(=O)NS(=O)(=O)c4cnc(NC5CCN(C6CCOCC6)CC5)c(Br)c4)c(Oc4cnc5[nH]ccc5c4)c3)CC2)=C(c2ccc(Cl)cc2)C1` [Example 61, N-({5-bromo-6-[(1-tetrahydro-2H-pyran-4-ylpiperidin-4-yl)amino]pyridin-3-yl}sulfonyl)-4-(4-{[2-(4-chlorophenyl)-4,4-dimethylcyclohex-1-en-1-yl]methyl}piperazin-1-yl)-2-(1H-pyrrolo[2,3-b]pyridin-5-yloxy)benzamide], on GST-Bc1-2 (setting [1]), the inhibitory constant (Ki) was found to be 0.091 nM. This molecule also gave an EC50 in the assay on RS4;11 cells (setting [2]) of 183 nM.

`O=C(NS(=O)(=O)c1ccc(NCC2CCOCC2)c([N+](=O)[O-])c1)c1ccc(N2CCN(Cc3ccccc3-c3ccc(Cl)cc3)CC2)cc1Oc1ccc2[nH]ccc2c1` [Example 87, 4-{4-[(4′-chloro-1,1′-biphenyl-2-yl)methyl]piperazin-1-yl}-2-(1H-indol-5-yloxy)-N-({3-nitro-4-[(tetrahydro-2H-pyran-4-ylmethyl)amino]phenyl}sulfonyl)benzamide]: the inhibition constant (Ki) on GST-Bc1-2 (setting [1]) and at GST-Bc1-2 (read-out: Bcl-2 FRET ki) was 0.618 nM each time. It took 1180 nM to reach a half-maximal effect with RS4;11 cells (setting [2]) (EC50).

Consider `CC1(C)CCC(CN2CCN(c3ccc(C(=O)NS(=O)(=O)c4ccc(NN5CCS(=O)(=O)CC5)c([N+](=O)[O-])c4)c(Oc4cnc5[nH]ccc5c4)c3)CC2)=C(c2ccc(Cl)cc2)C1` [Example 107, Trans-4-(4-{[2-(4-chlorophenyl)-4,4-dimethylcyclohex-1-en-1-yl]methyl}piperazin-1-yl)-N-({4-[(1,1-dioxidothiomorpholin-4-yl)amino]-3-nitrophenyl}sulfonyl)-2-(1H-pyrrolo[2,3-b]pyridin-5-yloxy)benzamide], for which, at GST-Bc1-2 (setting [1]), the Ki was 0.035 nM. In the assay with RS4;11 cells (setting [2]), this molecule yielded a concentration for a half-maximal effect (EC50) of 61.2 nM.

As to `CC1(C)CCC(CN2CCN(c3ccc(C(=O)NS(=O)(=O)c4ccc(OC[C@H]5CC[C@H](O)CC5)c([N+](=O)[O-])c4)c(Oc4cnc5[nH]ccc5c4)c3)CC2)=C(c2ccc(Cl)cc2)C1` [Example 196, Trans-4-(4-{[2-(4-chlorophenyl)-4,4-dimethylcyclohex-1-en-1-yl]methyl}piperazin-1-yl)-N-({4-[(4-hydroxycyclohexyl)methoxy]-3-nitrophenyl}sulfonyl)-2-(1H-pyrrolo[2,3-b]pyridin-5-yloxy)benzamide], in the assay with RS4;11 cells (setting [2]), the 50% effective concentration (EC50) is 1.72 nM.

In the assay on RS4;11 cells (setting [2]), `CC1(C)CCC(CN2CCN(c3ccc(C(=O)NS(=O)(=O)c4ccc(NCC5CCC(C)(O)CC5)c([N+](=O)[O-])c4)c(Oc4cnc5[nH]ccc5c4)c3)CC2)=C(c2ccc(Cl)cc2)C1` (stereo not drawn) [Example 337, 4-(4-{[2-(4-chlorophenyl)-4,4-dimethylcyclohex-1-en-1-yl]methyl}piperazin-1-yl)-N-[(4-{[(trans-4-hydroxy-4-methylcyclohexyl)methyl]amino}-3-nitrophenyl)sulfonyl]-2-(1H-pyrrolo[2,3-b]pyridin-5-yloxy)benzamide] showed an EC50 of 1.76 nM.

In the assay on RS4;11 cells (setting [2]), `CC1(O)CCC(COc2ncc(S(=O)(=O)NC(=O)c3ccc(N4CCN(CC5=C(c6ccc(Cl)cc6)CC6(CC5)CC6)CC4)cc3Oc3cnc4[nH]ccc4c3)cc2Cl)CC1` (stereo not drawn) [Example 341, N-({5-chloro-6-[(trans-4-hydroxy-4-methylcyclohexyl)methoxy]pyridin-3-yl}sulfonyl)-4-(4-{[5-(4-chlorophenyl)spiro[2.5]oct-5-en-6-yl]methyl}piperazin-1-yl)-2-(1H-pyrrolo[2,3-b]pyridin-5-yloxy)benzamide] registered an EC50 of 31.7 nM.

Take `CC1(C)CCC(CN2CCN(c3ccc(C(=O)NS(=O)(=O)c4ccc(OCC5CCC(C)(O)CC5)c(Cl)c4)c(Oc4cnc5[nH]ccc5c4)c3)CC2)=C(c2ccc(Cl)cc2)C1` (stereo not drawn) [Example 362, N-({3-chloro-4-[(trans-4-hydroxy-4-methylcyclohexyl)methoxy]phenyl}sulfonyl)-4-(4-{[2-(4-chlorophenyl)-4,4-dimethylcyclohex-1-en-1-yl]methyl}piperazin-1-yl)-2-(1H-pyrrolo[2,3-b]pyridin-5-yloxy)benzamide]: the midpoint of the response in the assay on RS4;11 cells (setting [2]), the EC50, lay at 31.7 nM.

`CC1(C)CCC(CN2CCN(c3ccc(C(=O)NS(=O)(=O)c4ccc(NCC5CCC6(CC5)COC6)c([N+](=O)[O-])c4)c(Oc4cnc5[nH]ccc5c4)c3)CC2)=C(c2ccc(Cl)cc2)C1` [Example 365, 4-(4-{[2-(4-chlorophenyl)-4,4-dimethylcyclohex-1-en-1-yl]methyl}piperazin-1-yl)-N-({3-nitro-4-[(2-oxaspiro[3.5]non-7-ylmethyl)amino]phenyl}sulfonyl)-2-(1H-pyrrolo[2,3-b]pyridin-5-yloxy)benzamide]: at GST-Bc1-2 (setting [1]), the inhibitory constant (Ki) is under 0.01 nM.

On to `CC1(C)CCC(CN2CCN(c3ccc(C(=O)NS(=O)(=O)c4ccc(NCC5CCC(C)(C#N)CC5)c([N+](=O)[O-])c4)c(Oc4cnc5[nH]ccc5c4)c3)CC2)=C(c2ccc(Cl)cc2)C1` (centres unmarked) [Example 366, 4-(4-{[2-(4-chlorophenyl)-4,4-dimethylcyclohex-1-en-1-yl]methyl}piperazin-1-yl)-N-[(4-{[(4-cyano-4-methylcyclohexyl)methyl]amino}-3-nitrophenyl)sulfonyl]-2-(1H-pyrrolo[2,3-b]pyridin-5-yloxy)benzamide], for which the Ki at GST-Bc1-2 (setting [1]) is 0.024 nM.

In turn, `[2H]C1([2H])N(CC2=C(c3ccc(Cl)cc3)CC(C)(C)CC2)C([2H])([2H])C([2H])([2H])N(c2ccc(C(=O)NS(=O)(=O)c3ccc(NCC4CCOCC4)c([N+](=O)[O-])c3)c(Oc3cnc4[nH]ccc4c3)c2)C1([2H])[2H]` [Example 369, 4-[4-{[2-(4-chlorophenyl)-4,4-dimethylcyclohex-1-en-1-yl]methyl}(2H8)piperazin-1-yl]-N-({3-nitro-4-[(tetrahydro-2H-pyran-4-ylmethyl)amino]phenyl}sulfonyl)-2-(1H-pyrrolo[2,3-b]pyridin-5-yloxy)benzamide] yielded a concentration for a half-maximal effect (EC50) in the assay with RS4;11 cells (setting [2]) of 8 nM.

In the case of `CC1(C)CCC(CN2CCN(c3ccc(C(=O)NS(=O)(=O)c4cnc5c(c4)nnn5CC4CCOCC4)c(Oc4cnc5[nH]ccc5c4)c3)CC2)=C(c2ccc(Cl)cc2)C1` [Example 370, 4-(4-{[2-(4-chlorophenyl)-4,4-dimethylcyclohex-1-en-1-yl]methyl}piperazin-1-yl)-2-(1H-pyrrolo[2,3-b]pyridin-5-yloxy)-N-{[3-(tetrahydro-2H-pyran-4-ylmethyl)-3H-[1,2,3]triazolo[4,5-b]pyridin-6-yl]sulfonyl}benzamide], the inhibition constant (Ki) on GST-Bc1-2 (setting [1]) amounted to 0.285 nM.

`CC1(C)CCC(CN2CCN(c3ccc(C(=O)NS(=O)(=O)c4ccc(NC(=O)N5CCOCC5)c([N+](=O)[O-])c4)c(Oc4cnc5[nH]ccc5c4)c3)CC2)=C(c2ccc(Cl)cc2)C1` [Example 373, N-(4-{[4-(4-{[2-(4-chlorophenyl)-4,4-dimethylcyclohex-1-en-1-yl]methyl}piperazin-1-yl)-2-(1H-pyrrolo[2,3-b]pyridin-5-yloxy)benzoyl]sulfamoyl}-2-nitrophenyl)morpholine-4-carboxamide] displayed a Ki at GST-Bc1-2 (TR-FRET Bcl-2 Binding Ki) of under 0.001 nM.

`COCC1CCC(CNc2ccc(S(=O)(=O)NC(=O)c3ccc(N4CCN(CC5=C(c6ccc(Cl)cc6)CC(C)(C)CC5)CC4)cc3Oc3cnc4[nH]ccc4c3)cc2[N+](=O)[O-])CC1` (centres unmarked) [Example 374, 4-(4-{[2-(4-chlorophenyl)-4,4-dimethylcyclohex-1-en-1-yl]methyl}piperazin-1-yl)-N-{[4-({[4-(methoxymethyl)cyclohexyl]methyl}amino)-3-nitrophenyl]sulfonyl}-2-(1H-pyrrolo[2,3-b]pyridin-5-yloxy)benzamide]: the Ki on GST-Bc1-2 (setting [1]) is under 0.001 nM.

With `CC1(C)CCC(CN2CCN(c3ccc(C(=O)NS(=O)(=O)c4cnc(OCC5CCN(c6nccs6)CC5)c(Cl)c4)c(Oc4cnc5[nH]ccc5c4)c3)CC2)=C(c2ccc(Cl)cc2)C1` [Example 375, 4-(4-{[2-(4-chlorophenyl)-4,4-dimethylcyclohex-1-en-1-yl]methyl}piperazin-1-yl)-N-[(5-chloro-6-{[1-(1,3-thiazol-2-yl)piperidin-4-yl]methoxy}pyridin-3-yl)sulfonyl]-2-(1H-pyrrolo[2,3-b]pyridin-5-yloxy)benzamide], the Ki at GST-Bc1-2 (setting [1]) came to 0.11 nM.

As to `COC1(C)CCC(c2ccc(Cl)cc2)=C(CN2CCN(c3ccc(C(=O)NS(=O)(=O)c4ccc(NCC5CCOCC5)c([N+](=O)[O-])c4)c(Oc4cnc5[nH]ccc5c4)c3)CC2)C1` (centres unmarked) [Example 378, 4-(4-{[2-(4-chlorophenyl)-5-methoxy-5-methylcyclohex-1-en-1-yl]methyl}piperazin-1-yl)-N-({3-nitro-4-[(tetrahydro-2H-pyran-4-ylmethyl)amino]phenyl}sulfonyl)-2-(1H-pyrrolo[2,3-b]pyridin-5-yloxy)benzamide], the inhibitory constant (Ki) on GST-Bc1-2 (setting [1]) is under 0.001 nM.
